Laboratory results as given in ChEMBL document CHEMBL3352632 (Bioorg Med Chem, 2014).
The source made the active and inactive calls. The rule behind the calls is not given here.

Experiments:
[1] = tested on: HepG2; assay: Cytotoxicity against human HepG2 cells after 24 hrs by MTT assay; details: HepG2, 24 h
[2] = Selectivity for fluorescently-labeled c-KIT1 G-quadruplex DNA (unknown origin) over fluorescently-labeled c-MYC G-quadruplex DNA (unknown origin)
[3] = tested on: HepG2; assay: Cell cycle arrest in human HepG2 cells assessed as accumulation at G2/M phase at 2.5 uM after 12 hrs by propidium iodide staining based flow cytometry (reference value: 25.2%); type: functional
[4] = Binding affinity to fluorescently-labeled c-MYC G-quadruplex DNA (unknown origin) by thiazole-ornage dye based fluorescence intercalator displacement assay
[5] = Binding affinity to fluorescently-labeled c-KIT1 G-quadruplex DNA (unknown origin) by thiazole-ornage dye based fluorescence intercalator displacement assay
[6] = tested on: HepG2; assay: Induction of apoptosis in human HepG2 cells assessed as necrotic cells level at 10 uM after 24 hrs by annexin V/propidium iodide double staining based flow cytometry; type: functional
[7] = tested on: HepG2; assay: Induction of apoptosis in human HepG2 cells assessed as necrotic cells level at 2.5 uM after 24 hrs by annexin V/propidium iodide double staining based flow cytometry; type: functional
[8] = tested on: HepG2; assay: Induction of apoptosis in human HepG2 cells assessed as late apoptotic cells level at 2.5 uM after 24 hrs by annexin V/propidium iodide double staining based flow cytometry; type: functional
[9] = tested on: HepG2; assay: Induction of apoptosis in human HepG2 cells assessed as early apoptotic cells level at 5 uM after 24 hrs by annexin V/propidium iodide double staining based flow cytometry; type: functional
[10] = tested on: HepG2; assay: Cell cycle arrest in human HepG2 cells assessed as accumulation at S phase at 10 uM after 12 hrs by propidium iodide staining based flow cytometry (reference value: 19.10%); type: functional
[11] = Binding affinity to fluorescently-labeled h-TELO G-quadruplex DNA (unknown origin) by thiazole-ornage dye based fluorescence intercalator displacement assay
[12] = tested on: HepG2; assay: Induction of apoptosis in human HepG2 cells assessed as early apoptotic cells level at 10 uM after 24 hrs by annexin V/propidium iodide double staining based flow cytometry; type: functional
[13] = Binding affinity to fluorescently-labeled duplex DNA (unknown origin) by thiazole-ornage dye based fluorescence intercalator displacement assay
[14] = tested on: HepG2; assay: Cell cycle arrest in human HepG2 cells assessed as accumulation at G0/G1 phase at 5 uM after 12 hrs by propidium iodide staining based flow cytometry (reference value: 53.4%); type: functional
[15] = tested on: HepG2; assay: Cell cycle arrest in human HepG2 cells assessed as accumulation at S phase at 2.5 uM after 12 hrs by propidium iodide staining based flow cytometry (reference value: 19.5%); type: functional
[16] = tested on: HepG2; assay: Cell cycle arrest in human HepG2 cells assessed as accumulation at subG0 phase at 10 uM after 12 hrs by propidium iodide staining based flow cytometry (reference value: 1.8%); type: functional
[17] = tested on: HepG2; assay: Induction of apoptosis in human HepG2 cells assessed as late apoptotic cells level at 5 uM after 24 hrs by annexin V/propidium iodide double staining based flow cytometry; type: functional
[18] = tested on: HepG2; assay: Cell cycle arrest in human HepG2 cells assessed as accumulation at G2/M phase at 5 uM after 12 hrs by propidium iodide staining based flow cytometry (reference value: 25.2%); type: functional
[19] = Binding affinity to fluorescently-labeled c-KIT1 G-quadruplex DNA (unknown origin) assessed as change in melting temperature at 2 uM in presence of 20 uM duplex DNA by FRET assay
[20] = Selectivity for fluorescently-labeled c-KIT1 G-quadruplex DNA (unknown origin) over fluorescently-labeled c-KIT2 G-quadruplex DNA (unknown origin)
[21] = tested on: HepG2; assay: Induction of apoptosis in human HepG2 cells assessed as early apoptotic cells level at 2.5 uM after 24 hrs by annexin V/propidium iodide double staining based flow cytometry; type: functional
[22] = tested on: HepG2; assay: Cell cycle arrest in human HepG2 cells assessed as accumulation at subG0 phase at 2.5 uM after 12 hrs by propidium iodide staining based flow cytometry (reference value: 1.8%); type: functional
[23] = tested on: HepG2; assay: Cell cycle arrest in human HepG2 cells assessed as accumulation at G0/G1 phase at 2.5 uM after 12 hrs by propidium iodide staining based flow cytometry (reference value: 53.4%); type: functional
[24] = tested on: HepG2; assay: Cell cycle arrest in human HepG2 cells assessed as accumulation at S phase at 5 uM after 12 hrs by propidium iodide staining based flow cytometry (reference value: 19.5%); type: functional
[25] = Binding affinity to fluorescently-labeled c-KIT1 G-quadruplex DNA (unknown origin) assessed as change in melting temperature at 2 uM in presence of 5 uM c-MYC G-quadruplex DNA by FRET assay
[26] = Binding affinity to fluorescently-labeled c-KIT1 G-quadruplex DNA (unknown origin) assessed as change in melting temperature by FRET assay
[27] = Binding affinity to fluorescently-labeled c-KIT2 G-quadruplex DNA (unknown origin) by thiazole-ornage dye based fluorescence intercalator displacement assay
[28] = Binding affinity to fluorescently-labeled c-KIT1 G-quadruplex DNA (unknown origin) assessed as change in melting temperature at 2 uM in presence of 5 uM c-KIT2 G-quadruplex DNA by FRET assay
[29] = tested on: HepG2; assay: Cell cycle arrest in human HepG2 cells assessed as accumulation at G2/M phase at 10 uM after 12 hrs by propidium iodide staining based flow cytometry (reference value: […]); type: functional
[30] = Selectivity for fluorescently-labeled c-KIT1 G-quadruplex DNA (unknown origin) over fluorescently-labeled h-TELO G-quadruplex DNA (unknown origin)
[31] = Binding affinity to fluorescently-labeled c-KIT1 G-quadruplex DNA (unknown origin) assessed as change in melting temperature at 2 uM by FRET assay
[32] = tested on: HepG2; assay: Cell cycle arrest in human HepG2 cells assessed as accumulation at subG0 phase at 5 uM after 12 hrs by propidium iodide staining based flow cytometry (reference value: 1.8%); type: functional
[33] = tested on: HepG2; assay: Cell cycle arrest in human HepG2 cells assessed as accumulation at G0/G1 phase at 10 uM after 12 hrs by propidium iodide staining based flow cytometry (reference value: […]); type: functional
[34] = tested on: HepG2; assay: Induction of apoptosis in human HepG2 cells assessed as late apoptotic cells level at 10 uM after 24 hrs by annexin V/propidium iodide double staining based flow cytometry; type: functional
[35] = Binding affinity to fluorescently-labeled c-KIT1 G-quadruplex DNA (unknown origin) assessed as change in melting temperature at 2 uM in presence of 5 uM h-TELO G-quadruplex DNA by FRET assay
[36] = tested on: HepG2; assay: Induction of apoptosis in human HepG2 cells assessed as necrotic cells level at 5 uM after 24 hrs by annexin V/propidium iodide double staining based flow cytometry; type: functional

## O=C(NCc1cn(-c2ccc(NC(=O)[C@@H]3CCCN3)cc2)nn1)c1cccc(C(=O)NCc2cn(-c3ccc(NC(=O)[C@@H]4CCCN4)cc3)nn2)n1
[1]
  IC50: 7.42 µM
[2]
  Selectivity ratio: 5
[3]
  Activity: 26.7%
[4]
  DC50: 11.3 µM
  Kd: 3.8 µM
[5]
  DC50: 0.47 µM
  Kd: 0.74 µM
[6]
  Activity: 85.8%
[7]
  Activity: 29.3%
[8]
  Activity: 3.9%
[9]
  Activity: 0.2%
[10]
  Activity: 8.2%
[11]
  DC50: 7.3 µM
  Kd: 11.6 µM
[12]
  Activity: 7.3%
[13]
  DC50: > 25 µM
[14]
  Activity: 55.5%
[15]
  Activity: 13.8%
[16]
  Activity: 7.4%
[17]
  Activity: 2.6%
[18]
  Activity: 24.4%
[19]
  Activity: inactive
[20]
  Selectivity ratio: 30
[21]
  Activity: 0.6%
[22]
  Activity: 3.3%
[23]
  Activity: 56.2%
[24]
  Activity: 14%
[25]
  Activity: inactive
[26]
  Activity: Dose-dependent effect
[27]
  DC50: 9.5 µM
  Kd: 22.7 µM
[28]
  Activity: inactive
[29]
  Activity: 18.4%
[30]
  Selectivity ratio: 15
[31]
  deltaTm: 30.6 K
[32]
  Activity: 6.1%
[33]
  Activity: 65.8%
[34]
  Activity: 6.7%
[35]
  Activity: inactive
[36]
  Activity: 38.6%
